Measured values published in the supplement of paper PMC10307832.

Legend:
Test in all cases: relative viability (nuclei count vs DMSO), 5 days (fraction); higher = more cells survive
NCI-H661 = tested on: NCI-H661
How it was run: (§1)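 Each reported value is a median over duplicate plates. It expresses relative viability: treated-well nuclei count divided by vehicle-well nuclei count. Lung cancer cell lines in 1536-well plates were dosed by pin tool a day after seeding, alone with one drug or with a fixed anchor-drug dose plus five library-drug doses (not always all listed) in √10 steps, and nuclei were counted after 5 days.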

NCI-H727 = tested on: NCI-H727
How it was run: as §1

NCI-H441 = tested on: NCI-H441
How it was run: as §1

COR-L23 = tested on: COR-L23
How it was run: as §1

EKVX = tested on: EKVX
How it was run: as §1

CAL-12T = tested on: CAL-12T
How it was run: as §1

BEN = tested on: BEN
How it was run: as §1

NCI-H2009 = tested on: NCI-H2009
How it was run: as §1

NCI-H2170 = tested on: NCI-H2170
How it was run: as §1

NCI-H1666 = tested on: NCI-H1666
How it was run: as §1

ABC-1 = tested on: ABC-1
How it was run: as §1

NCI-H1437 = tested on: NCI-H1437
How it was run: as §1

LU99A = tested on: LU99A
How it was run: as §1

201T = tested on: 201T
How it was run: as §1

LK-2 = tested on: LK-2
How it was run: as §1

SW 900 = tested on: SW 900
How it was run: as §1

COR-L 105 = tested on: COR-L 105
How it was run: as §1

NCI-H1650 = tested on: NCI-H1650
How it was run: as §1

HCC-366 = tested on: HCC-366
How it was run: as §1

HARA = tested on: HARA
How it was run: as §1

NCI-H838 = tested on: NCI-H838
How it was run: as §1

PC-14 = tested on: PC-14
How it was run: as §1

NCI-H3122 = tested on: NCI-H3122
How it was run: as §1

Oc1nc(-c2ccc(C(F)(F)F)cc2)nc2c1CSCC2 [XAV939] + COc1cccc2cc(-c3nc([C@H]4CC[C@H](C(=O)O)CC4)n4ncnc(N)c34)[nH]c12 [OSI-027] (partner 0.5 µM)
relative viability (NCI-H661; first compound 0.08 µM): 0.701 | relative viability (NCI-H661; first compound 0.253 µM): 0.719 | relative viability (NCI-H661; first compound 0.8 µM): 0.696 | relative viability (NCI-H661; first compound 2.53 µM): 0.583 | relative viability (NCI-H727; first compound 0.08 µM): 0.696 | relative viability (NCI-H727; first compound 0.253 µM): 0.495 | relative viability (NCI-H727; first compound 0.8 µM): 0.744 | relative viability (NCI-H727; first compound 2.53 µM): 0.514 | relative viability (NCI-H441; first compound 0.08 µM): 0.657 | relative viability (NCI-H441; first compound 0.253 µM): 0.794 | relative viability (NCI-H441; first compound 0.8 µM): 0.697 | relative viability (NCI-H441; first compound 2.53 µM): 0.568 | relative viability (COR-L23; first compound 0.08 µM): 0.824 | relative viability (COR-L23; first compound 0.253 µM): 0.765 | relative viability (COR-L23; first compound 0.8 µM): 0.77 | relative viability (COR-L23; first compound 2.53 µM): 0.618 | relative viability (EKVX; first compound 0.08 µM): 0.719 | relative viability (EKVX; first compound 0.253 µM): 0.686 | relative viability (EKVX; first compound 0.8 µM): 0.593 | relative viability (EKVX; first compound 2.53 µM): 0.532 | relative viability (CAL-12T; first compound 0.08 µM): 0.635 | relative viability (CAL-12T; first compound 0.253 µM): 0.363 | relative viability (CAL-12T; first compound 0.8 µM): 0.441 | relative viability (CAL-12T; first compound 2.53 µM): 0.335 | relative viability (BEN; first compound 0.08 µM): 0.28 | relative viability (BEN; first compound 0.253 µM): 0.303 | relative viability (BEN; first compound 0.8 µM): 0.314 | relative viability (BEN; first compound 2.53 µM): 0.309 | relative viability (NCI-H2009; first compound 0.08 µM): 0.676 | relative viability (NCI-H2009; first compound 0.253 µM): 0.561 | relative viability (NCI-H2009; first compound 0.8 µM): 0.507 | relative viability (NCI-H2009; first compound 2.53 µM): 0.369 | relative viability (NCI-H2170; first compound 0.08 µM): 0.749 | relative viability (NCI-H2170; first compound 0.253 µM): 0.493 | relative viability (NCI-H2170; first compound 0.8 µM): 0.643 | relative viability (NCI-H2170; first compound 2.53 µM): 0.611 | relative viability (NCI-H1666; first compound 0.08 µM): 0.883 | relative viability (NCI-H1666; first compound 0.253 µM): 0.711 | relative viability (NCI-H1666; first compound 0.8 µM): 0.752 | relative viability (NCI-H1666; first compound 2.53 µM): 0.627 | relative viability (ABC-1; first compound 0.08 µM): 0.44 | relative viability (ABC-1; first compound 0.253 µM): 0.532 | relative viability (ABC-1; first compound 0.8 µM): 0.374 | relative viability (ABC-1; first compound 2.53 µM): 0.28 | relative viability (NCI-H1437; first compound 0.08 µM): 1.03 | relative viability (NCI-H1437; first compound 0.253 µM): 0.877 | relative viability (NCI-H1437; first compound 0.8 µM): 0.89 | relative viability (NCI-H1437; first compound 2.53 µM): 0.783 | relative viability (LU99A; first compound 0.08 µM): 0.303 | relative viability (LU99A; first compound 0.253 µM): 0.348 | relative viability (LU99A; first compound 0.8 µM): 0.329 | relative viability (LU99A; first compound 2.53 µM): 0.268 | relative viability (201T; first compound 0.08 µM): 0.61 | relative viability (201T; first compound 0.253 µM): 0.487 | relative viability (201T; first compound 0.8 µM): 0.575 | relative viability (201T; first compound 2.53 µM): 0.622 | relative viability (LK-2; first compound 0.08 µM): 0.168 | relative viability (LK-2; first compound 0.253 µM): 0.232 | relative viability (LK-2; first compound 0.8 µM): 0.188 | relative viability (LK-2; first compound 2.53 µM): 0.206 | relative viability (SW 900; first compound 0.08 µM): 0.779 | relative viability (SW 900; first compound 0.253 µM): 0.572 | relative viability (SW 900; first compound 0.8 µM): 0.687 | relative viability (SW 900; first compound 2.53 µM): 0.476 | relative viability (COR-L 105; first compound 0.08 µM): 0.722 | relative viability (COR-L 105; first compound 0.253 µM): 0.589 | relative viability (COR-L 105; first compound 0.8 µM): 0.5 | relative viability (COR-L 105; first compound 2.53 µM): 0.482 | relative viability (NCI-H1650; first compound 0.08 µM): 0.817 | relative viability (NCI-H1650; first compound 0.253 µM): 0.6 | relative viability (NCI-H1650; first compound 0.8 µM): 0.742 | relative viability (NCI-H1650; first compound 2.53 µM): 0.443 | relative viability (HCC-366; first compound 0.08 µM): 0.962 | relative viability (HCC-366; first compound 0.253 µM): 0.666 | relative viability (HCC-366; first compound 0.8 µM): 1.03 | relative viability (HCC-366; first compound 2.53 µM): 0.767 | relative viability (HARA; first compound 0.08 µM): 0.436 | relative viability (HARA; first compound 0.253 µM): 0.424 | relative viability (HARA; first compound 0.8 µM): 0.3 | relative viability (HARA; first compound 2.53 µM): 0.467 | relative viability (NCI-H838; first compound 0.08 µM): 0.375 | relative viability (NCI-H838; first compound 0.253 µM): 0.371 | relative viability (NCI-H838; first compound 0.8 µM): 0.365 | relative viability (NCI-H838; first compound 2.53 µM): 0.301 | relative viability (PC-14; first compound 0.08 µM): 1.09 | relative viability (PC-14; first compound 0.253 µM): 0.772 | relative viability (PC-14; first compound 0.8 µM): 0.725 | relative viability (PC-14; first compound 2.53 µM): 0.639 | relative viability (NCI-H3122; first compound 0.08 µM): 1.08 | relative viability (NCI-H3122; first compound 0.253 µM): 0.96 | relative viability (NCI-H3122; first compound 0.8 µM): 0.91 | relative viability (NCI-H3122; first compound 2.53 µM): 0.581
